Measurements taken from patent US20140186427A1, “ORODISPERSIBLE FILMS FOR THE MANUFACTURING OF INDIVIDUALISED MEDICINE OR FOR LARGE SCALE PRODUCTION” (TESA LABTEC GMBH, priority 2011, published 2014).
Where a name gives a salt, the structure may show the parent alone.

Tests used:
[1] = Solubility of the API in the ink (Klucel EX, brilliant blue, ethanol); assay type: physicochemical; settings: brilliant blue and ethanol
Excerpt: The ingredients of the ink were Klucel® EX (hydroxypropylcellulose, Ashland, USA), brilliant blue and ethanol.

[2] = Recrystallisation after printing: polarised microscopy and X-ray diffraction; assay type: physicochemical; settings: printed ODF
Excerpt: X-ray diffractograms were collected for the drug-free film, the APIs and the ODFs after the fourth printing process using […], Netherland). Polarised micrographs and scanning electron micrographs were collected for the drug-free film and the ODFs after the fourth printing process using a DMLB microscope (Leica Microsystems, Cambridge, UK) and a LEO 1430 VP (Leo Elektron Microscopy, Cambridge, UK).

SMILES | Solubility in the ink [1] | Recrystallisation / crystals after the printing process [2]
CN1CC(=O)N2[C@H](c3ccc4c(c3)OCO4)c3[nH]c4ccccc4c3C[C@@H]2C1=O [Tadalafil] | forms an ink-suspension | –
C#CCN[C@@H]1CCc2ccccc21 [Rasagiline mesylate] | soluble in the ink | did not recrystallise
